How the values were obtained:
dopamine (DA) uptake = biological target: T1, dopamine (DA) uptake (Rattus norvegicus, UniProt P23977); test: Dopamine (DA) uptake inhibitory activity using rat brain synaptosome; format: biochemical; conditions: rat striatum synaptosome, tritium-labeled DA 2 nM; read-out: IC50 (nM), dopamine (DA) uptake inhibition
T1 construct: used as crude synaptosomal fraction; from tissue; host or cells: rat striatum, crude synaptosomal fraction
Procedure: Male Wistar rats were decapitated, each brain was removed, and the striatum was cut out. […] The homogenate was centrifuged at 1000 g at 4° C. for 10 minutes, and the supernatant was further centrifuged at 20000 g at 4° C. for 20 minutes. The pellet was suspended in an incubation buffer (20 mM Hepes buffer (pH 7.4) containing 10 mM glucose, 145 mM sodium chloride, 4.5 mM potassium chloride, 1.2 mM magnesium chloride and 1.5 mM calcium chloride) and used as crude synaptosomal fraction.
Each well of a 96-well round-bottom plate was used for the uptake reaction in a total volume of 200 μl solution containing purgurin (final concentration 10 μM) and ascorbic acid (final concentration 0.2 mg/mL). In other words, solvent, unlabeled DA or step-diluted test compound was added to each well, and one-tenth of the final volume of the synaptosomal fraction was added to each well, followed by pre-incubation at 37° C. for 10 minutes, and then tritium-labeled DA solution (final concentration 2 nM) was added and the uptake reaction was initiated at 37° C. After 10 minutes, the uptake reaction was terminated by suction filtration onto a 96-well glass fiber filter plate. The filters were rinsed with cold physi-ological saline solution, dried thoroughly, and micro scintillation 0 (Perkin-Elmer) was added thereto. Then, the residual radioactivity on the filters was measured.
The uptake value when only solvent was added was set as 100%, the uptake value when unlabeled DA (final concentration 10 μM) was added as 0% (nonspecific uptake value), and the 50% inhibitory concentration was calculated from the concentration of the test compound and its inhibitory activity.

[1] = Protein binding rate test (human serum, equilibrium dialysis); format: in vitro ADME; conditions: test compound 0.001 mmol/L, equilibrium dialysis 37° C. 6 hours
Procedure: A serum sample was prepared by adding a test compound solution to a human serum (final concentration of the test compound: 0.001 mmol/L). The serum sample and Dulbecco's Phosphate-Buffered Saline (D-PBS(−)) were added to the wells separated by a dialysis membrane to start the reaction. A solution of the internal standard in methanol was prepared and used as a quenching solution.
Specifically, the dialysis membrane (cut-off molecular weight 12000-14000) was pre-conditioned by immersing it in distilled water, followed by 20% ethanol. Then, the membrane was washed with D-PBS(−) and set in an equilibrium dialysis kit. Then, 150 μL of D-PBS(−) was added to one part of each well divided by the dialysis membrane, and 150 μL of serum sample was added to the other part. After sealing all wells and incubation at 37° C. for 6 hours, 30 μL from the serum side and 90 μL from the PBS side of each well were collected and mixed with 90 μL of D-PBS(−) or 30 μL of blank serum and 480 μL of a quenching solution to quench the reaction.
The mixture was centrifuged (6130 g, 4° C., 10 minutes) and the supernatant was used as a sample for LC-MS/MS.
Peak area ratio ([peak area of test compound]/[peak area of internal standard]) was calculated for the test compound and the internal standard. By comparing the peak area ratio of the PBS side for each test compound with that of the serum side, the protein binding rate (%) of each test compound was calculated from (1-[peak area ratio of PBS side]/[peak area ratio of serum side])×100.

CYP3A4 = biological target: T2, CYP3A4 (Homo sapiens, UniProt P08684); test: CYP inhibition test (1): inhibition rate (%) at one concentration, CYP3A4; format: in vitro ADME; conditions: human liver microsomes, pH 7.4, probe midazolam (0.005 mmol/L); test compound 0.01 mmol/L, human liver microsome 0.1 mg/mL, substrate midazolam, 37° C. 10 minutes; read-out: inhibition rate (%) 3A4
T2 construct: a human liver microsome solution containing three CYP-specific substrates; from tissue; host or cells: human liver microsomes
Procedure: A metabolic reaction was initiated by adding and mixing a test compound solution (final concentration 0.01 mmol/L) and a NADH/NADPH solution (final concentration 1 mmol/L) to a human liver microsome solution containing three CYP-specific substrates (final concentration 100 mmol/L potassium phosphate buffer solution (pH 7.4), 5 mmol/L magnesium chloride, 0.1 mg/mL human liver microsome, 0.005 mmol/L diclofenac (for CYP2C9), 0.01 mmol/L bufuralol (for […]), 0.005 mmol/L midazolam (for CYP3A4)). As an internal standard solution, a solution of each of stable isotopes of the metabolites (50 ng/mL [13C6] hydroxy diclofenac, 5 ng/mL [2H9] hydroxy bufuralol, and 5 ng/mL [13C6] hydroxy midazolam (all stable isotopes)) in methanol was prepared and used as a quenching solution.
Specifically, a metabolic reaction was initiated by adding and mixing 2 μL of a solution of a test compound in acetonitrile (or acetonitrile as a control) to 178 μL of a human liver microsome solution in ice water, followed by preincubation at 37° C. for 1 minute, and then adding 20 μL of a NADH/NADPH solution thereto. After incubation at 37° C. for 10 minutes, 50 μL of the reaction mixture was taken, and then it was added and mixed to 500 μL of a quenching solution to quech the reaction. The mixture was centrifuged (6130 g, 4° C., 10 minutes) and the supernatant was used as a sample for LC-MS/MS.
Peak area ratio ([peak area of metabolite]/[peak area of corresponding stable isotope]) was calculated for a metabolite and a stable isotope of the metabolite as measurement object. By comparing the peak area ratio of each test compound solution with that of the control, the inhibition rate (%) of each CYP species for each test compound was calculated from (1-[peak area ratio of each test compound solution]/[peak area ratio of control])×100.

[2] = biological target: T3, norepinephrine (NE) uptake (Rattus norvegicus, UniProt Q63380); test: Norepinephrine (NE) uptake inhibitory activity using rat brain synaptosome; format: biochemical; conditions: rat hippocampus synaptosome, tritium-labeled NE 12 nM; read-out: IC50 (nM), norepinephrine (NE) uptake inhibition
T3 construct: used as crude synaptosomal fraction; from tissue; host or cells: rat hippocampus, crude synaptosomal fraction
Procedure: Male Wistar rats were decapitated, each brain was removed, and the hippocampus was cut out. […] The homogenate was centrifuged at 1000 g at 4° C. for 10 minutes, and the supernatant was further centrifuged at 20000 g at 4° C. for 20 minutes. The pellet was suspended in an incubation buffer (20 mM Hepes buffer (pH 7.4) containing 10 mM glucose, 145 mM sodium chloride, 4.5 mM potassium chloride, 1.2 mM magnesium chloride and 1.5 mM calcium chloride) and used as crude synaptosomal fraction.
Each well of a 96-well round-bottom plate was used for the uptake reaction in a total volume of 200 μL solution containing purgurin (final concentration 10 μM) and ascorbic acid (final concentration 0.2 mg/mL).
After 10 minutes, the uptake reaction was terminated by suction filtration onto a 96-well glass fiber filter plate. The filters were rinsed with cold physi-ological saline solution, dried thoroughly, and micro scintillation 0 (Perkin-Elmer) was added thereto. Then, the residual radioactivity on the filters was measured.
The uptake value when only solvent was added was set as 100%, the uptake value when unlabeled NE (final concentration 10 μM) was added as 0% (nonspecific uptake value), and the 50% inhibitory concentration was calculated from the concentration of the test compound and its inhibitory activity.

T2 sequence (P08684 whole entry): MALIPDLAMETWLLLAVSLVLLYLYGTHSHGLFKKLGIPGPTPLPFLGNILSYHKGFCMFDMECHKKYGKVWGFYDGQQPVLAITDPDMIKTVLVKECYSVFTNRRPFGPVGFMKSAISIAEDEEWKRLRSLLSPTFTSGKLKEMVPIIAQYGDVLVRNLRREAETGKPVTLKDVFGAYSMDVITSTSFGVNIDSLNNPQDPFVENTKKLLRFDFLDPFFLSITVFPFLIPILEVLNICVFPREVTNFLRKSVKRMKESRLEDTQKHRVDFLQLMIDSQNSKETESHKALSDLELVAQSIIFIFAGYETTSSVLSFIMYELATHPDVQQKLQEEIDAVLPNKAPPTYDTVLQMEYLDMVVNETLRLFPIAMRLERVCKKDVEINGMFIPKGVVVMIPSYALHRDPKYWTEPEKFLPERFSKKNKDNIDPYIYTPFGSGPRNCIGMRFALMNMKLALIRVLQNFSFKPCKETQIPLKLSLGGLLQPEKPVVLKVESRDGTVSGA
T3 sequence (Q63380 1-617): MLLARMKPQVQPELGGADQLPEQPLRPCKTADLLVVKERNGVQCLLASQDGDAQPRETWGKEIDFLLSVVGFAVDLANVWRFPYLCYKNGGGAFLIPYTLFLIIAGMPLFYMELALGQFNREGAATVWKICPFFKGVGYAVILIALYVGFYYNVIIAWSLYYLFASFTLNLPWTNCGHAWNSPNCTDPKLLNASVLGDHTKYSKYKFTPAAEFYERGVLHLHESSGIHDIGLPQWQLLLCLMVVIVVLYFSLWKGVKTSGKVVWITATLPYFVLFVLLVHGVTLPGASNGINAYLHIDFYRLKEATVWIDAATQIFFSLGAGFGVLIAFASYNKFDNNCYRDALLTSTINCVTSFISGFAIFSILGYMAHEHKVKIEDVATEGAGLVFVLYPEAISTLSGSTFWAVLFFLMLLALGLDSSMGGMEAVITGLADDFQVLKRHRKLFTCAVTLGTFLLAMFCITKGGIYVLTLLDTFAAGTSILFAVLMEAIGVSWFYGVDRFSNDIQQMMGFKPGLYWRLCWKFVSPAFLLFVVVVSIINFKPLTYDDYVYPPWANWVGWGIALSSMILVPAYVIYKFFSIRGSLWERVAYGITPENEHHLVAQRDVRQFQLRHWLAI
T1 sequence (P23977 whole entry): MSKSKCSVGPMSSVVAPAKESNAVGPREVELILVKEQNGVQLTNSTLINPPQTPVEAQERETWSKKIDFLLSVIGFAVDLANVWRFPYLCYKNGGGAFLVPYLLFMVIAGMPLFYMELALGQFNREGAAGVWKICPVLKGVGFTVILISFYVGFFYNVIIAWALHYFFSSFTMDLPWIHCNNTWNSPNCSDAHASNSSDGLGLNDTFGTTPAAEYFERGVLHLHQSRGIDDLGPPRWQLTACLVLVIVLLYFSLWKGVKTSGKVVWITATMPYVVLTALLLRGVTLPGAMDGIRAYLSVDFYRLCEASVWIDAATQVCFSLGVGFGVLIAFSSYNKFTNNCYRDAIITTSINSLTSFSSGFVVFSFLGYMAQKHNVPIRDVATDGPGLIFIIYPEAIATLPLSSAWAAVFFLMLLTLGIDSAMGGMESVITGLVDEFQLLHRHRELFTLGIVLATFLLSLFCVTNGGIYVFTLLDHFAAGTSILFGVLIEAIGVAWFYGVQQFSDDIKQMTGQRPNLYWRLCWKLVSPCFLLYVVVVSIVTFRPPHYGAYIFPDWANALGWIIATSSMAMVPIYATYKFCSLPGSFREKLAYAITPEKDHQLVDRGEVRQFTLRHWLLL

Structure (SMILES) | IC50 (dopamine (DA) uptake) [nM] | fraction unbound at 6 h, 0.001 mmol/L [1] | inhibition at 10 min, 0.01 mmol/L (CYP3A4) [%] | IC50 [2] [nM]
CC1(C)CN(c2ccc(OCCO)c3occc23)[C@@H]2CCCC[C@@H]2N1 [Example 50] | 214 | 0.551 | 2 | 5.8
CC1(C)CN(c2ccc(OCCO)c3occc23)[C@H]2CCCC[C@H]2N1 [Example 51] | 41.1 | 0.553 | 1.1 | 4.3
CC1(C)CN(c2ccc(OCCO)c(F)c2)[C@H]2CCCC[C@H]2N1 [Example 52] | 74.4 | 0.73 | 0.1 | 8.3
Cc1c(N2CC(C)(C)N[C@@H]3CCCC[C@@H]32)ccc(OC(F)(F)CO)c1F [Example 57] | 88 | 0.294 | 8.6 | 4.9
CC1(C)CN(c2cc(Br)c(OCCO)cc2F)[C@H]2CCCC[C@H]2N1 [Example 62] | 273 | 0.404 | -1.6 | 6.9
CC1(C)CN(c2ccc(OCCO)c(Br)c2F)[C@H]2CCCC[C@H]2N1 [Example 63] | 85.1 | 0.261 | 6.1 | 3.6
CC1(C)CN(c2ccc(OCCO)cc2Cl)[C@H]2CCCC[C@H]2N1 [Example 64, 2-(3-chloro-4-((4aR,8aS)-3,3-dimethyloctahydroquinoxalin-1(2H)-yl)phenoxy)ethan-1-ol 1/2fumarate] | 78.9 | 0.499 | 3.9 | 5.4
CC1(C)CN(c2cc(F)c(OCCO)cc2F)[C@H]2CCCC[C@H]2N1 [Example 72] | 241 | 0.766 | -2.4 | 7.9
CC1(C)CN(c2ccc(OC(F)(F)CO)c(F)c2F)[C@H]2CCCC[C@H]2N1 [Example 73] | 68.7 | 0.267 | 5.9 | 2.4

The next lines start with the values.

IC50 (dopamine (DA) uptake) [nM] | fraction unbound at 6 h, 0.001 mmol/L [1] | inhibition at 10 min, 0.01 mmol/L (CYP3A4) [%] | IC50 [2] [nM] | Structure (SMILES)
68.6 | 0.413 | -9.2 | 6.6 | Cc1cc(N2CC(C)(C)N[C@@H]3CCCC[C@@H]32)ccc1OC(F)(F)CO [Example 48]
58.4 | 0.358 | 13.1 | 6.4 | Cc1cc(N2CC(C)(C)N[C@@H]3CCCC[C@@H]32)cc(F)c1OC(F)(F)CO [Example 58]
60.2 | 0.337 | -2.7 | 6.1 | CC1(C)CN(c2ccc(OC(F)(F)CO)cc2F)[C@H]2CCCC[C@H]2N1 [Example 61, 2-(4-((4aR,8aS)-3,3-dimethyloctahydroquinoxalin-1(2H)-yl)-3-fluorophenoxy)-2,2-difluoroethan-1-ol 1/2fumarate]
91.4 | 0.211 | 19.7 | 3.4 | Cc1c(OC(F)(F)CO)ccc(N2CC(C)(C)N[C@H]3CCCC[C@H]32)c1F [Example 69, 2-(4-((4aS,8aR)-3,3-dimethyloctahydroquinoxalin-1(2H)-yl)-3-fluoro-2-methylphenoxy)-2,2-difluoroethan-1-ol 1/2fumarate]
44.5 | 0.195 | 17.6 | 1 | Cc1c(OC(F)(F)CO)ccc(N2CC(C)(C)N[C@@H]3CCCC[C@@H]32)c1F [Example 70]
81.4 | 0.285 | -3.4 | 6.3 | CC1(C)CN(c2cc(F)c(OC(F)(F)CO)cc2F)[C@H]2CCCC[C@H]2N1 [Example 71]
35.3 | 0.277 | 9.9 | 9.7 | CC1(C)CN(c2cc(Cl)c(OC(F)(F)CO)cc2F)[C@H]2CCCC[C@@H]2N1 [Example 75]
60.5 | 0.308 | 12.4 | 8.8 | CC1(C)CN(c2cc(Cl)c(OC(F)(F)CO)cc2F)[C@@H]2CCCC[C@H]2N1 [Example 76]
205 | 0.411 | -1.9 | 7.1 | CC1(C)CN(c2cc(F)c(OC(F)(F)CO)cc2F)[C@H]2CCCC[C@@H]2N1 [Example 77]
